Laboratory results reported in EP4722212A1, “NOVEL COMPOUND FOR INHIBITING PROTEIN KINASES AND PHARMACEUTICAL COMPOSITION COMPRISING SAME” (Magicbullettherapeutics Co., Ltd., priority 2023, dated 2024).
Read-outs that look alike come from different tables or passages of the source.

Tests used:
Test in all cases: Kinase panel
Assay type in all cases: biochemical
STK33 = STK33 (Homo sapiens, UniProt Q9BYT3); settings: STK33, 1 µM; read-out: residual enzyme activity
Method in brief: (§1)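 Biochemical profiling at one dose (1 µM) across a full kinase panel; % activity remaining derived for each enzyme; those at 40% or lower retained as hits.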

PLK1 = PLK1 (Homo sapiens, UniProt P53350); settings: PLK1, 1 µM; read-out: residual enzyme activity
Method in brief: as §1

CDK1/CYCLIN B = CDK1/CYCLIN B (Homo sapiens, UniProt P06493); settings: read-out: residual enzyme activity
Method in brief: as §1

CDK2/CYCLIN E2 = CDK2/CYCLIN E2 (Homo sapiens, UniProt P24941); settings: CDK2/cyclin E2, 1 µM; read-out: residual enzyme activity
Method in brief: as §1

ABL2/ARG = ABL2/ARG (Homo sapiens, UniProt P42684); settings: read-out: residual enzyme activity
Sequence of ABL2/ARG (P42684 whole entry): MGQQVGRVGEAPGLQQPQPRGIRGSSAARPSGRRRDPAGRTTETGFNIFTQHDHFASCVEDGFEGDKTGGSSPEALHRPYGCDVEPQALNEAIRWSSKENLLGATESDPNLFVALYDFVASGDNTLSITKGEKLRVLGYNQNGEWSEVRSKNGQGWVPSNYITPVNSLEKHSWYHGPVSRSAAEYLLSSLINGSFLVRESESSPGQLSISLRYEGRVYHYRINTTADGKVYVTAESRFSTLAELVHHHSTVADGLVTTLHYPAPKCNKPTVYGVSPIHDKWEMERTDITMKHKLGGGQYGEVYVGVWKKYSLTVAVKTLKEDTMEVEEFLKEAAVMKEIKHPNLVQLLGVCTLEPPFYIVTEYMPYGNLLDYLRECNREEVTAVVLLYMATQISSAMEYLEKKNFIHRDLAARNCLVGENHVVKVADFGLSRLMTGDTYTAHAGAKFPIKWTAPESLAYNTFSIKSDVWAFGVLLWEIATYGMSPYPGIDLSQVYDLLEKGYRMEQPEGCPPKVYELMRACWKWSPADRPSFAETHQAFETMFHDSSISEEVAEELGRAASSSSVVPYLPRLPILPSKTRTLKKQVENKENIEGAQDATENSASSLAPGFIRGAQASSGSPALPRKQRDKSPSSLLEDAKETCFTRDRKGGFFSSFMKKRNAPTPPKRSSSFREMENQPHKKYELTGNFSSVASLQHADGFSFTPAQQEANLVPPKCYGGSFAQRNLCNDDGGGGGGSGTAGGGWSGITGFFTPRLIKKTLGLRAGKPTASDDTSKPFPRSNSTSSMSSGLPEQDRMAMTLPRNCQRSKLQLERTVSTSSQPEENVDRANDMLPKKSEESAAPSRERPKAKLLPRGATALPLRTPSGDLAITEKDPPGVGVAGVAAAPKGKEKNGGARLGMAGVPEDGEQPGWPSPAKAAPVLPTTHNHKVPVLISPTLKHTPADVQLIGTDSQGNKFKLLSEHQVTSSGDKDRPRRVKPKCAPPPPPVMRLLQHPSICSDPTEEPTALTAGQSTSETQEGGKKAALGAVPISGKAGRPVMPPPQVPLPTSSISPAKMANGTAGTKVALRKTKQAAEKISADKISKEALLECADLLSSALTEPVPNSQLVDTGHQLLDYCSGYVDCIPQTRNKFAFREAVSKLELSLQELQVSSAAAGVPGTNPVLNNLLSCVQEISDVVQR
Method in brief: as §1

MARK4 = MARK4 (Homo sapiens, UniProt Q96L34); settings: MARK4, 1 µM; read-out: residual enzyme activity
Sequence of MARK4 (Q96L34 whole entry, species assumed): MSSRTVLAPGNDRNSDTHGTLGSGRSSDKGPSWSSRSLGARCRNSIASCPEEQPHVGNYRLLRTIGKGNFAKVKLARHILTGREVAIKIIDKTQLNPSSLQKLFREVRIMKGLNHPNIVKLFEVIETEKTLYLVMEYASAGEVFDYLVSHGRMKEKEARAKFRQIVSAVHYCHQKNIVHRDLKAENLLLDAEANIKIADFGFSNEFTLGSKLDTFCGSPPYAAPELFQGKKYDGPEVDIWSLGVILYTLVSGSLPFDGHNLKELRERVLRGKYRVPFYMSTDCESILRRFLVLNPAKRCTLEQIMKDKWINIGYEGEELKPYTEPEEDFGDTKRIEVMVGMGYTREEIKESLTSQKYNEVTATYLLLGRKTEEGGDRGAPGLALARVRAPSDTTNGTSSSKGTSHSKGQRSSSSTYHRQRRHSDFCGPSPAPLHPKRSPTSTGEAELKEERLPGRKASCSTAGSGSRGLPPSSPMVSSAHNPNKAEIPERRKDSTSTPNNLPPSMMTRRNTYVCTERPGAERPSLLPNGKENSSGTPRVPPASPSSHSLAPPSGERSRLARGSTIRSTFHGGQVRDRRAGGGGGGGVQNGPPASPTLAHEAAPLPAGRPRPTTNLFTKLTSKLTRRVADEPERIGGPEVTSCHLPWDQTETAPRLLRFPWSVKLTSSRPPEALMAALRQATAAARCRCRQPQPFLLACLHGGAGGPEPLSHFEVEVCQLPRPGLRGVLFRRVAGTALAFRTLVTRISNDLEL
Method in brief: as §1

TYK1/LTK = TYK1/LTK (Homo sapiens, UniProt P29376); settings: read-out: residual enzyme activity
Method in brief: as §1

EPHB1 = EPHB1 (Homo sapiens, UniProt P54762); settings: EPHB1, 1 µM; read-out: residual enzyme activity
Method in brief: as §1

MKK4 = MKK4 (Homo sapiens, UniProt P45985); settings: MKK4, 1 µM; read-out: residual enzyme activity
Method in brief: as §1

PIM3 = PIM3 (Homo sapiens, UniProt Q86V86); settings: PIM3, 1 µM; read-out: residual enzyme activity
Method in brief: as §1

MST1/STK4 = MST1/STK4 (Homo sapiens, UniProt Q13043); settings: MST1/STK4, 1 µM; read-out: residual enzyme activity
Method in brief: as §1

CK2A2 = CK2A2 (Homo sapiens, UniProt P19784); settings: read-out: residual enzyme activity
Sequence of CK2A2 (P19784 whole entry, species assumed): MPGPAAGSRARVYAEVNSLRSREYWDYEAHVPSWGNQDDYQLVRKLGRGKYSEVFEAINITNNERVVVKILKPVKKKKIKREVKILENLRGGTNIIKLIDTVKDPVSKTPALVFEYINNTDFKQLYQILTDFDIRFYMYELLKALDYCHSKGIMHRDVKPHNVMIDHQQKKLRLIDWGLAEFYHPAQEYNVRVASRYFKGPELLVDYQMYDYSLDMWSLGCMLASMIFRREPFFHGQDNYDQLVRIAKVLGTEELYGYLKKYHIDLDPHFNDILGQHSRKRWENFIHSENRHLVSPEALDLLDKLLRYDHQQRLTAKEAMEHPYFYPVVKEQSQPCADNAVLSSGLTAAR
Method in brief: as §1

EPHB2 = EPHB2 (Homo sapiens, UniProt P29323); settings: EPHB2, 1 µM; read-out: residual enzyme activity
Sequence of EPHB2 (P29323 19-1055, species assumed): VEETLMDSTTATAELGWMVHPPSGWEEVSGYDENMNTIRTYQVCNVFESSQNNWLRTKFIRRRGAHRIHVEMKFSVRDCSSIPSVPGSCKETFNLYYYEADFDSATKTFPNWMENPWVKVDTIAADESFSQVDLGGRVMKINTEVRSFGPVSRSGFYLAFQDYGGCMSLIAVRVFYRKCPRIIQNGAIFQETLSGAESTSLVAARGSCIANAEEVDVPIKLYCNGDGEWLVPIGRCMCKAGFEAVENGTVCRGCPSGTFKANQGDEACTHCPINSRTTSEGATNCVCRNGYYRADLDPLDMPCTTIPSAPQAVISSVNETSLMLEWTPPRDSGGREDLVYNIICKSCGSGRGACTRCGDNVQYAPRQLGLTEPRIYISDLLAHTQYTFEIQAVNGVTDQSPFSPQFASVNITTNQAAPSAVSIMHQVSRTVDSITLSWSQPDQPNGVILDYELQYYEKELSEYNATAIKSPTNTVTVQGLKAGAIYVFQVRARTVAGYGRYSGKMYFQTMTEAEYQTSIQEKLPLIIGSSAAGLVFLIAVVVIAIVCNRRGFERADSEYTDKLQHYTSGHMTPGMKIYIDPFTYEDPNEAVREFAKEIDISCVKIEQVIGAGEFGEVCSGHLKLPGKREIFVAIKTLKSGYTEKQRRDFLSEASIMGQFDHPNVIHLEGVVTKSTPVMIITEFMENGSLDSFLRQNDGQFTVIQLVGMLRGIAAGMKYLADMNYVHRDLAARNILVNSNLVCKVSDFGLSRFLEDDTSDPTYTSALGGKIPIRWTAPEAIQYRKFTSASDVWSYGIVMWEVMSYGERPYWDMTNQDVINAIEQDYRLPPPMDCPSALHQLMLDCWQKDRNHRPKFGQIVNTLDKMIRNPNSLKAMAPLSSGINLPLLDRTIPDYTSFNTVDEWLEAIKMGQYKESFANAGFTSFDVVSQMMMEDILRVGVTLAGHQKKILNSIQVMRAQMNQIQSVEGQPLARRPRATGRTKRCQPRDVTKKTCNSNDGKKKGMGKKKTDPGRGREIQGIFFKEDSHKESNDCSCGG
Method in brief: as §1

EPHA3 = EPHA3 (Homo sapiens, UniProt P29320); settings: EPHA3, 1 µM; read-out: residual enzyme activity
Method in brief: as §1

NIM1 = NIM1 (Homo sapiens, UniProt Q8IY84); settings: NIM1, 1 µM; read-out: residual enzyme activity
Sequence of NIM1 (Q8IY84 whole entry, species assumed): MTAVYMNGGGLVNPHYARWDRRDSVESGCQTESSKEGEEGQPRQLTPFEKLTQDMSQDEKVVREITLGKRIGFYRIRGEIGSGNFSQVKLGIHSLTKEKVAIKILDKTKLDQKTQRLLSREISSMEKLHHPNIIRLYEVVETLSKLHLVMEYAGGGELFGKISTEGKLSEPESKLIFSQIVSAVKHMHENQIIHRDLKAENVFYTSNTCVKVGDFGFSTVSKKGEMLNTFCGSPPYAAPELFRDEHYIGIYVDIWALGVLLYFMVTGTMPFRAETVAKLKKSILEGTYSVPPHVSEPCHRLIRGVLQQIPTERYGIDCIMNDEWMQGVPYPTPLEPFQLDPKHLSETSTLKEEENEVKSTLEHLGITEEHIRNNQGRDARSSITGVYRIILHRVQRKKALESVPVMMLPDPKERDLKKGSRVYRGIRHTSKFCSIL
Method in brief: as §1

YES/YES1 = YES/YES1 (Homo sapiens, UniProt P07947); settings: YES/YES1, 1 µM; read-out: residual enzyme activity
Sequence of YES/YES1 (P07947 whole entry): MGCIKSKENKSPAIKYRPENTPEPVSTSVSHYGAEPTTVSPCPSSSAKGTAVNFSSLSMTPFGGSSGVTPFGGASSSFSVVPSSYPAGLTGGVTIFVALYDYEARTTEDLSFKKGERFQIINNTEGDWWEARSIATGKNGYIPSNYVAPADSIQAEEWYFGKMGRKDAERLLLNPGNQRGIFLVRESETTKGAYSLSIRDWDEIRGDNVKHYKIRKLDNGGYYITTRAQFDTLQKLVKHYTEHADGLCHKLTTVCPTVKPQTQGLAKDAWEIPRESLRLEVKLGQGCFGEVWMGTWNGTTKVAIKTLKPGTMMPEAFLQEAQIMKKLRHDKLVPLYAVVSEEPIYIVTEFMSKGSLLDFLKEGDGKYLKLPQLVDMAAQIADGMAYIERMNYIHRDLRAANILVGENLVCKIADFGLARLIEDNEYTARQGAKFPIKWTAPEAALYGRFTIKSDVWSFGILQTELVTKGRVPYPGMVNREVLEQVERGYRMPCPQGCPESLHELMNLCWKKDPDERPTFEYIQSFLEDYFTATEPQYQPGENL
Method in brief: as §1

MEK2 = MEK2 (Homo sapiens, UniProt P36507); settings: MEK2, 1 µM; read-out: residual enzyme activity
Method in brief: as §1

CTK/MATK = CTK/MATK (Homo sapiens, UniProt P42679); settings: read-out: residual enzyme activity
Method in brief: as §1

MEKK2 = MEKK2 (Homo sapiens, UniProt Q9Y2U5); settings: MEKK2, 1 µM; read-out: residual enzyme activity
Sequence of MEKK2 (Q9Y2U5 whole entry, species assumed): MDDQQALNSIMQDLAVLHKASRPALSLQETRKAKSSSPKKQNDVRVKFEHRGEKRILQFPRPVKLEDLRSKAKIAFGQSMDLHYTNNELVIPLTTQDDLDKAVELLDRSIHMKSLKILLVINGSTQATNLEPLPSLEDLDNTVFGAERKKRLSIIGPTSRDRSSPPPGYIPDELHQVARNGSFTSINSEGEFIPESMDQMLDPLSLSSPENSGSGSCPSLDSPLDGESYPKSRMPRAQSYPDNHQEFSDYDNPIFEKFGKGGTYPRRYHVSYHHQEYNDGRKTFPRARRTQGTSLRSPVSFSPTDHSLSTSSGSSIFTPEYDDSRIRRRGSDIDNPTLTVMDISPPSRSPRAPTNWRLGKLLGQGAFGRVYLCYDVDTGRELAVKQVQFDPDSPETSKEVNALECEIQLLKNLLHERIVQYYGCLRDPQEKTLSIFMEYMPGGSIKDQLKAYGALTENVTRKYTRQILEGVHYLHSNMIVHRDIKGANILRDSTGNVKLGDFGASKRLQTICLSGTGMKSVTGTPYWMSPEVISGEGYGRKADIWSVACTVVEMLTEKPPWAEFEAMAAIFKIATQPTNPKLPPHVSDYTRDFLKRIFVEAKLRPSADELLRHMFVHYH
Method in brief: as §1

MLCK/MYLK = MLCK/MYLK (Homo sapiens, UniProt Q15746); settings: read-out: residual enzyme activity
Method in brief: as §1

GRK3 = GRK3 (Homo sapiens, UniProt P35626); settings: GRK3, 1 µM; read-out: residual enzyme activity
Method in brief: as §1

LATS1 = LATS1 (Homo sapiens, UniProt O95835); settings: LATS1, 1 µM; read-out: residual enzyme activity
Method in brief: as §1

CAMK2D = CAMK2D (Homo sapiens, UniProt Q13557); settings: read-out: residual enzyme activity
Method in brief: as §1

CK1A1L = CK1A1L (Homo sapiens, UniProt Q8N752); settings: read-out: residual enzyme activity
Method in brief: as §1

TNIK = TNIK (Homo sapiens, UniProt Q9UKE5); settings: read-out: residual enzyme activity
Method in brief: as §1

JNK3 = JNK3 (Homo sapiens, UniProt P53779); settings: JNK3, 1 µM; read-out: residual enzyme activity
Method in brief: as §1

HIPK3 = HIPK3 (Homo sapiens, UniProt Q9H422); settings: HIPK3, 1 µM; read-out: residual enzyme activity
Method in brief: as §1

CK1G1 = CK1G1 (Homo sapiens, UniProt Q9HCP0); settings: read-out: residual enzyme activity
Method in brief: as §1

Row | Structure (SMILES) | remaining activity at 1 µM (STK33) [%] | remaining activity at 1 µM (PLK1) [%] | remaining activity at 1 µM (CDK1/CYCLIN B) [%] | remaining activity at 1 µM (CDK2/CYCLIN E2) [%] | remaining activity at 1 µM (ABL2/ARG) [%] | remaining activity at 1 µM (MARK4) [%] | remaining activity at 1 µM (TYK1/LTK) [%] | remaining activity at 1 µM (EPHB1) [%] | remaining activity at 1 µM (MKK4) [%] | remaining activity at 1 µM (PIM3) [%] | remaining activity at 1 µM (MST1/STK4) [%] | remaining activity at 1 µM (EPHB2) [%] | remaining activity at 1 µM (EPHA3) [%] | remaining activity at 1 µM (NIM1) [%] | remaining activity at 1 µM (YES/YES1) [%] | remaining activity at 1 µM (MEK2) [%] | remaining activity at 1 µM (CTK/MATK) [%] | remaining activity at 1 µM (MEKK2) [%] | remaining activity at 1 µM (MLCK/MYLK) [%] | remaining activity at 1 µM (GRK3) [%] | further results
1 | Cc1cn(-c2cc(C(=O)Nc3ccc(C)c(N4Cc5cnc(NC6CC6)nc5C5(CC5)C4=O)c3)cc(C(F)(F)F)c2)cn1 [Compound 8, N-(3-(2'-(cyclopropylamino)-7'-oxo-5'H-spiro[cyclopropane-1,8'-pyrido[4,3-d]pyrimidine]-6'(7'H)-yl)-4-methylphenyl)-3-(4-methyl-1H-imidazol-1-yl)-5-(trifluoromethyl)benzamide] | > 40 | > 40 | > 40 | > 40 | ≤ 40 | > 40 | ≤ 40 | ≤ 40 | > 40 | > 40 | > 40 | ≤ 40 | ≤ 40 | > 40 | ≤ 40 | > 40 | > 40 | ≤ 40 | > 40 | > 40 | remaining activity at 1 µM (CK2A2; CK2A2, 1 µM): > 40%; remaining activity at 1 µM (LATS1): > 40%; remaining activity at 1 µM (CAMK2D; CAMK2D): > 40%; remaining activity at 1 µM (CK1A1L; CK1A1L): > 40%; remaining activity at 1 µM (TNIK): ≤ 40%; remaining activity at 1 µM (JNK3): > 40%; remaining activity at 1 µM (HIPK3): > 40%; remaining activity at 1 µM (CK1G1; CK1G1, 1 µM): > 40%
2 | Cc1ccc(Nc2ncc3c(n2)C2(CC2)C(=O)N(c2cc(NC(=O)c4cccc(C(F)(F)F)c4)ccc2C)C3)cn1 [Compound 51, N-(4-methyl-3-(2'-((6-methylpyridin-3-yl)amino)-7'-oxo-5'H-spiro[cyclopropane-1,8'-pyrido[4,3-d]pyrimidine]-6'(7'H)-yl)phenyl)-3-(trifluoromethyl)benzamide] | > 40 | > 40 | > 40 | > 40 | ≤ 40 | > 40 | > 40 | ≤ 40 | > 40 | > 40 | > 40 | ≤ 40 | ≤ 40 | > 40 | ≤ 40 | > 40 | > 40 | ≤ 40 | > 40 | > 40 | remaining activity at 1 µM (CK2A2; CK2a2, 1 µM): > 40%; remaining activity at 1 µM (LATS1): > 40%; remaining activity at 1 µM (CAMK2D; CAMK2d): > 40%; remaining activity at 1 µM (CK1A1L; CKlalL): > 40%; remaining activity at 1 µM (TNIK): ≤ 40%; remaining activity at 1 µM (JNK3): ≤ 40%; remaining activity at 1 µM (HIPK3): > 40%; remaining activity at 1 µM (CK1G1; CK1g1, 1 µM): > 40%
